Measurements: patent US10947252B2, “Inhibitors of KEAP1-Nrf2 protein-protein interaction” (Janssen Pharmaceutica NV, priority 2018, dated 2021)

Tests used:
[1] = system: Glo-Response ARE-luc2P HEK293 cell line; experiment: ARE luciferase reporter cell-based assay; conditions: Homo sapiens, HEK293, 24 h, average of results obtained;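 note: luciferase signal tracks Nrf2 activation of the ARE once compounds disrupt KEAP1-Nrf2 binding, read with One-Glo reagent, DMSO serving as low control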
[2] = biological target: Kelch domain of human KEAP1 (321-624 aa) (Homo sapiens (Human), UniProt Q14145); experiment: KEAP1 KELCH ThermoFluor binding assay; conditions: KEAP Kelch […], 1,8-ANS, pH 7.0, average of results obtained, read-out: Tf Kd;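 note: Ligand-induced melting temperature shift of E. coli-expressed KEAP1 Kelch protein, Kd estimated from concentration-response curves of ΔTm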
Kelch domain of human KEAP1 (321-624 aa), sequence (Q14145 321-624): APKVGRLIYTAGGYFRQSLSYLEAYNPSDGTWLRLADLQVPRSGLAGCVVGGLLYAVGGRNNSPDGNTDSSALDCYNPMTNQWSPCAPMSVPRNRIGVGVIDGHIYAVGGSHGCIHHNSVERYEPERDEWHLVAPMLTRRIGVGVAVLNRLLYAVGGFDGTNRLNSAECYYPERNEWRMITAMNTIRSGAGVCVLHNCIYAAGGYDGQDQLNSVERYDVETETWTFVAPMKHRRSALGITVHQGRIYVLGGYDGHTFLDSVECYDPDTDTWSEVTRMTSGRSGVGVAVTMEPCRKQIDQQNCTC

Row | SMILES | Kd [2] | EC50 [1]
1 | Cc1ccc([C@H](c2ccn3c(C(F)(F)F)nnc3c2C)C(C)(C)C(=O)O)nc1CN1CC2(CCOCC2)Oc2ncccc2S1(=O)=O (single isomer, unassigned) [Example 39, (*R)-3-(6-((1′,1′-Dioxido-2,3,5,6-tetrahydrospiro[pyran-4,4′-pyrido[2,3-b][1,4,5]oxathiazepin]-2′(3′H)-yl)methyl)-5-methylpyridin-2-yl)-2,2-dimethyl-3-(8-methyl-3-(trifluoromethyl)-[1,2,4]triazolo[4,3-a]pyridin-7-yl)propanoic Acid] | 4250 nM | 1260 nM
2 | Cc1ccc([C@H](c2ccn3c(C4CC4)nnc3c2C)C(C)(C)C(=O)O)cc1CN1CC2(CCOCC2)Oc2ncccc2S1(=O)=O (single isomer, unassigned) [Example 42, (*R)-3-(3-Cyclopropyl-8-methyl-[1,2,4]triazolo[4,3-a]pyridin-7-yl)-3-(3-((1′,1′-dioxido-2,3,5,6-tetrahydrospiro[pyran-4,4′-pyrido[2,3-b][1,4,5]oxathiazepin]-2′(3′H)-yl)methyl)-4-methylphenyl)-2,2-dimethylpropanoic Acid] | 7540 nM | 3460 nM
3 | Cc1ncc([C@@H](c2ccc3c(nnn3C3CC3)c2C)C(C)(C)C(=O)O)cc1CN1CC2(CCOCC2)Oc2ncccc2S1(=O)=O (single isomer, unassigned) [Example 45, (*R)-3-(1-Cyclopropyl-4-methyl-1H-benzo[d][1,2,3]triazol-5-yl)-3-(5-((1′,1′-dioxido-2,3,5,6-tetrahydrospiro[pyran-4,4′-pyrido[2,3-b][1,4,5]oxathiazepin]-2′(3′H)-yl)methyl)-6-methylpyridin-3-yl)-2,2-dimethylpropanoic Acid] | 42600 nM | 6560 nM
4 | Cc1ccc([C@H](c2ccn3c(C(F)(F)F)nnc3c2C)C(C)(C)C(=O)O)cc1CN1CC2(CCOCC2)Oc2nc(OCCN3CCOCC3)ccc2S1(=O)=O (single isomer, unassigned) [Example 48, (*R)-2,2-Dimethyl-3-(4-methyl-3-((7′-(2-morpholinoethoxy)-1′,1′-dioxido-2,3,5,6-tetrahydrospiro[pyran-4,4′-pyrido[2,3-b][1,4,5]oxathiazepin]-2′(3′H)-yl)methyl)phenyl)-3-(8-methyl-3-trifluoromethyl)-[1,2,4]triazolo[4,3-a]pyridine-7-yl)propanoic Acid] | 820 nM | 6270 nM
5 | Cc1ccc([C@@H](c2ccn3c(C(F)F)nnc3c2C)C(C)(C)C(=O)O)cc1CN1CC2(CCOCC2)Oc2ncccc2S1(=O)=O (single isomer, unassigned) [Example 53, (*S)-3-(3-(Difluoromethyl)-8-methyl-[1,2,4]triazolo[4,3-a]pyridin-7-yl)-3-(3-((1′,1′-dioxido-2,3,5,6-tetrahydrospiro[pyran-4,4′-pyrido[2,3-b][1,4,5]oxathiazepin]-2′(3′H)-yl)methyl)-4-methylphenyl)-2,2-dimethylpropanoic Acid] | < 1 nM | 3.9 nM
6 | Cc1ccc([C@H](c2ccn3c(C(F)F)nnc3c2C)C(C)(C)C(=O)O)cc1CN1CC2(CCOCC2)Oc2ncccc2S1(=O)=O (single isomer, unassigned) [Example 54, (*R)-3-(3-(Difluoromethyl)-8-methyl-[1,2,4]triazolo[4,3-a]pyridin-7-yl)-3-(3-((1′,1′-dioxido-2,3,5,6-tetrahydrospiro[pyran-4,4′-pyrido[2,3-b][1,4,5]oxathiazepin]-2′(3′H)-yl)methyl)-4-methylphenyl)-2,2-dimethylpropanoic Acid] | 1790 nM | 956 nM
7 | Cc1cnc([C@@H](c2ccn3c(C(F)(F)F)nnc3c2C)C(C)(C)C(=O)O)cc1CN1CC2(CCOCC2)Oc2ncccc2S1(=O)=O (single isomer, unassigned) [Example 56, (*S)-3-(4-((1′,1′-Dioxido-2,3,5,6-tetrahydrospiro[pyran-4,4′-pyrido[2,3-b][1,4,5]oxathiazepin]-2′(3′H)-yl)methyl)-5-methylpyridin-2-yl)-2,2-dimethyl-3-(8-methyl-3-(trifluoromethyl)-[1,2,4]triazolo[4,3-a]pyridin-7-yl)propanoic Acid] | < 1 nM | 48 nM
8 | Cc1cnc([C@H](c2ccn3c(C(F)(F)F)nnc3c2C)C(C)(C)C(=O)O)cc1CN1CC2(CCOCC2)Oc2ncccc2S1(=O)=O (single isomer, unassigned) [Example 57, (*R)-3-(4-((1′,1′-Dioxido-2,3,5,6-tetrahydrospiro[pyran-4,4′-pyrido[2,3-b][1,4,5]oxathiazepin]-2′(3′H)-yl)methyl)-5-methylpyridin-2-yl)-2,2-dimethyl-3-(8-methyl-3-(trifluoromethyl)-[1,2,4]triazolo[4,3-a]pyridin-7-yl)propanoic Acid] | 5670 nM | 6660 nM

More lines, main results first:

Row | Kd [2] | SMILES | EC50 [1]
9 | < 1 nM | Cc1ccc([C@@H](CC(=O)O)c2ccn3c(C(F)(F)F)nnc3c2C)nc1CN1C[C@H]2CCCCN2c2ncc(C#N)cc2S1(=O)=O (single isomer, unassigned) [Example 35, (*S)-3-(6-(((*R)-3-Cyano-5,5-dioxido-7,7a,8,9,10,11-hexahydro-6H-dipyrido[2,1-d:2′,3′-f][1,2,5]thiadiazepin-6-yl)methyl)-5-methylpyridin-2-yl)-3-(8-methyl-3-(trifluoromethyl)-[1,2,4]triazolo[4,3-a]pyridin-7-yl)propanoic Acid] | 65.7 nM
10 | < 1 nM | Cc1ccc([C@H](CC(=O)O)c2ccn3c(C(F)(F)F)nnc3c2C)nc1CN1C[C@H]2CCCCN2c2ncc(C#N)cc2S1(=O)=O (single isomer, unassigned) [Example 36, (*R)-3-(6-(((*R)-3-Cyano-5,5-dioxido-7,7a,8,9,10,11-hexahydro-6H-dipyrido[2,1-d:2′,3′-f][1,2,5]thiadiazepin-6-yl)methyl)-5-methylpyridin-2-yl)-3-(8-methyl-3-(trifluoromethyl)-[1,2,4]triazolo[4,3-a]pyridin-7-yl)propanoic Acid] | 15.2 nM
11 | < 1 nM | Cc1ccc([C@H](CC(=O)O)c2ccn3c(C(F)(F)F)nnc3c2C)nc1CN1C[C@@H]2CCCCN2c2ncc(C#N)cc2S1(=O)=O (single isomer, unassigned) [Example 37, (*R)-3-(6-(((*S)-3-Cyano-5,5-dioxido-7,7a,8,9,10,11-hexahydro-6H-dipyrido[2,1-d:2′,3′-f][1,2,5]thiadiazepin-6-yl)methyl)-5-methylpyridin-2-yl)-3-(8-methyl-3-(trifluoromethyl)-[1,2,4]triazolo[4,3-a]pyridin-7-yl)propanoic Acid] | 25.7 nM
12 | < 1 nM | Cc1ccc([C@@H](c2ccn3c(C(F)(F)F)nnc3c2C)C(C)(C)C(=O)O)nc1CN1CC2(CCOCC2)Oc2ncccc2S1(=O)=O (single isomer, unassigned) [Example 38, (*S)-3-(6-((1′,1′-Dioxido-2,3,5,6-tetrahydrospiro[pyran-4,4′-pyrido[2,3-b][1,4,5]oxathiazepin]-2′(3′H)-yl)methyl)-5-methylpyridin-2-yl)-2,2-dimethyl-3-(8-methyl-3-(trifluoromethyl)-[1,2,4]triazolo[4,3-a]pyridin-7-yl)propanoic Acid] | 7.2 nM
13 | < 1 nM | Cc1ccc([C@@H](c2ccn3c(C4CC4)nnc3c2C)C(C)(C)C(=O)O)cc1CN1CC2(CCOCC2)Oc2ncccc2S1(=O)=O (single isomer, unassigned) [Example 41, (*S)-3-(3-Cyclopropyl-8-methyl-[1,2,4]triazolo[4,3-a]pyridin-7-yl)-3-(3-((1′,1′-dioxido-2,3,5,6-tetrahydrospiro[pyran-4,4′-pyrido[2,3-b][1,4,5]oxathiazepin]-2′(3′H)-yl)methyl)-4-methylphenyl)-2,2-dimethylpropanoic Acid] | 46 nM
14 | < 1 nM | Cc1ncc([C@H](c2ccc3c(nnn3C3CC3)c2C)C(C)(C)C(=O)O)cc1CN1CC2(CCOCC2)Oc2ncccc2S1(=O)=O (single isomer, unassigned) [Example 44, (*S)-3-(1-Cyclopropyl-4-methyl-1H-benzo[d][1,2,3]triazol-5-yl)-3-(5-((1′,1′-dioxido-2,3,5,6-tetrahydrospiro[pyran-4,4′-pyrido[2,3-b][1,4,5]oxathiazepin]-2′(3′H)-yl)methyl)-6-methylpyridin-3-yl)-2,2-dimethylpropanoic Acid] | 54.3 nM
15 | < 1 nM | Cc1ccc([C@@H](c2ccn3c(C(F)(F)F)nnc3c2C)C(C)(C)C(=O)O)cc1CN1CC2(CCOCC2)Oc2nc(OCCN3CCOCC3)ccc2S1(=O)=O (single isomer, unassigned) [Example 47, (*S)-2,2-Dimethyl-3-(4-methyl-3-((7′-(2-morpholinoethoxy)-1′,1′-dioxido-2,3,5,6-tetrahydrospiro[pyran-4,4′-pyrido[2,3-b][1,4,5]oxathiazepin]-2′(3′H)-yl)methyl)phenyl)-3-(8-methyl-3-trifluoromethyl)-[1,2,4]triazolo[4,3-a]pyridine-7-yl)propanoic Acid] | 17.9 nM
16 | < 1 nM | Cc1ccc([C@@H](c2ccn3c(C(F)(F)F)nnc3c2C)C(C)(C)C(=O)O)cc1CN1CC2(CCOCC2)Oc2nc(OCCCO)ccc2S1(=O)=O (single isomer, unassigned) [Example 50, (*S)-3-(3-((7′-(3-Hydroxypropoxy)-1′,1′-dioxido-2,3,5,6-tetrahydrospiro[pyran-4,4′-pyrido[2,3-b][1,4,5]oxathiazepin]-2′(3′H)-yl)methyl)-4-methylphenyl-2,2′-dimethyl-3-(8-methy-3-trifluoromethyl)-[1,2,4]triazolo[4,3-a]pyridine-7-yl)propanoic Acid] | 52 nM
17 | 0.97 nM | Cc1ccc([C@H](c2ccn3c(C(F)(F)F)nnc3c2C)C(C)(C)C(=O)O)cc1CN1CC2(CCOCC2)Oc2nc(OCCCO)ccc2S1(=O)=O (single isomer, unassigned) [Example 51, (*R) 3-(3-((7′-(3-Hydroxypropoxy)-1′,1′-dioxido-2,3,5,6-tetrahydrospiro[pyran-4,4′-pyrido[2,3-b][1,4,5]oxathiazepin]-2′(3′H)-yl)methyl)-4-methylphenyl-2,2′-dimethyl-3-(8-methyl-3-trifluoromethyl)-[1,2,4]triazolo[4,3-a]pyridine-7-yl)propanoic Acid] | 646 nM
